Paper PMC9596378, “Discovery and molecular basis of subtype-selective cyclophilin inhibitors” (Nature Chemical Biology, 2022)
Where two headings read alike, the source gives them in different places.

Target: CypD (Homo sapiens, UniProt P30405)
Test: Chymotrypsin coupled prolyl-isomerase assay
Description: Five microliters of compound pre-dissolved in 5% DMSO/assay buffer was then added to appropriate wells and incubated at 2–3 °C for 5 min. Five microliters of 0.5 mM α-chymotrypsin from bovine pancreas (Type II, lyophilized powder, Millipore-Sigma) in 20% 1 mM HCl/Assay Buffer was then added to each well and incubated at 2–3 °C for 5 min. The plate was then quickly transferred to a FLIPR Tetra High-Throughput Cellular Screening System (Molecular Devices). Using the internal liquid handling system of the FLIPR, 1 µL 0.5 mM Suc-AAPF-AMC (Chymotrypsin Substrate II, Millipore-Sigma) dissolved in 0.55 M LiCl/2,2,2-trifluoroethanol was added to each well, which was then mixed for 5 s, followed by immediate fluorescence measurements every 1 s for 330 s using a 360–380 nm excitation LED module and a 400–460 nm emission filter. […] Raw fluorescence data was analyzed by non-linear regression analysis with Prism v.9 by fitting one-phase association curves to each well. […] Rate constants calculated for each well (s^−1) were then normalized to substrate only (no prolyl-isomerase) and enzyme + substrate only controls.

[1] = IC50 CypD cis, cis olefin isomer
[2] = IC50 CypD trans, trans olefin isomer

Chain of CypD (P30405 45-207): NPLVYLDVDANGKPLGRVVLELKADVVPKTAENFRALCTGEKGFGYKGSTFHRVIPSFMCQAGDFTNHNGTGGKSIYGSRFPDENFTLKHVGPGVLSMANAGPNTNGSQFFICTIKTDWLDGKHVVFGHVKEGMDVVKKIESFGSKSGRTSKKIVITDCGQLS

Row | IC50 [µM] | SMILES | also measured
1 | > 100 | NCCOCCNC(=O)C1CCNC(=O)C=CC(=O)N2CCCC(C2)C(=O)NC(Cc2ccco2)C(=O)NCc2ccccc2C(=O)N1 (centres unmarked) [Compound A1] | –
2 | > 100 | NCCOCCNC(=O)C1CCNC(=O)C=CC(=O)N2CCCCC2C(=O)NC(Cc2ccco2)C(=O)NCc2ccccc2CC(=O)N1 (centres unmarked) [Compound A23] | –
3 | 5.2 ± 0.3 | NCCCOCCOCCOCCCNC(=O)C1CCNC(=O)C=CC(=O)N2CCCC(C2)C(=O)NC(Cc2ccco2)C(=O)NCc2ccccc2CC(=O)N1 (centres unmarked) [JOMBt-D] | –
4 | > 100 | NCCOCCNC(=O)C1CCNC(=O)C=CC(=O)N2CCCC(C2)C(=O)NC(Cc2ccco2)C(=O)NC2C=CC(C2)C(=O)N1 (centres unmarked) [Compound A4] | –
5 | > 100 | NCCOCCNC(=O)C1CCNC(=O)C=CC(=O)N2CCCC(C2)C(=O)NC(CCc2ccccc2)C(=O)NCc2ccccc2CC(=O)N1 (centres unmarked) [Compound A16] | –
6 | > 100 | NCCOCCNC(=O)C1CCNC(=O)CCC(=O)N2CCCC(C2)C(=O)NC(Cc2ccco2)C(=O)NCc2ccccc2CC(=O)N1 (centres unmarked) [Compound A30] | –
7 | > 100 | NCCOCCNC(=O)C1CCCNC(=O)C=CC(=O)N2CCCC(C2)C(=O)NC(Cc2ccco2)C(=O)NCc2ccccc2CC(=O)N1 (centres unmarked) [JOMCt] | –
8 | 18 ± 3 | NCCOCCNC(=O)C1CCNC(=O)C=CC(=O)N2CCCC(C2)C(=O)NC(Cc2ccc(-c3ccccc3)cc2)C(=O)NCc2ccccc2CC(=O)N1 (centres unmarked) [Compound A15] | –
9 | – | NCCOCCNC(=O)C1CCNC(=O)C=CC(=O)N2CCCC(C2)C(=O)NC(Cc2ccco2)C(=O)NCc2ccccc2CC(=O)N1 (centres unmarked) [JOMB] | IC50 [1]: > 100 µM
10 | > 100 | NCCOCCNC(=O)C1CCNC(=O)C=CC(=O)N2CCCC(C2)C(=O)NC(CC2CCCCC2)C(=O)NCc2ccccc2CC(=O)N1 (centres unmarked) [Compound A12] | –
11 | > 100 | NCCOCCNC(=O)C1CCNC(=O)C=CC(=O)N2CCC(C2)C(=O)NC(Cc2ccco2)C(=O)NCc2ccccc2CC(=O)N1 (centres unmarked) [Compound A24] | –
12 | 22 ± 3 | Cc1cccc(CC2NC(=O)C3CCCN(C3)C(=O)C=CC(=O)NCCC(C(=O)NCCOCCN)NC(=O)Cc3ccccc3CNC2=O)c1 (centres unmarked) [Compound A19] | –
13 | ~90 | NCCOCCNC(=O)C1CCNC(=O)Cc2ccccc2CNC(=O)C(Cc2ccco2)NC(=O)C2CCCN(C2)C(=O)C=CC(=O)N1 (centres unmarked) [JOMFt] | –
14 | 10 ± 2 | CC(C)(C)c1ccc(CC2NC(=O)C3CCCN(C3)C(=O)C=CC(=O)NCCC(C(=O)NCCOCCN)NC(=O)Cc3ccccc3CNC2=O)cc1 (centres unmarked) [Compound A20] | –
15 | > 100 | CC(C)CC1NC(=O)C2CCCN(C2)C(=O)C=CC(=O)NCCC(C(=O)NCCOCCN)NC(=O)Cc2ccccc2CNC1=O (centres unmarked) [Compound A10] | –
16 | > 100 | NCCOCCNC(=O)C1CCNC(=O)C=CC(=O)N2CCCC(C2)C(=O)NC(Cc2ccco2)C(=O)NCc2ccccc2CC(=O)N1 (centres unmarked) [JOMBc] | –
17 | > 100 | CC1NC(=O)C2CCCN(C2)C(=O)C=CC(=O)NCCC(C(=O)NCCOCCN)NC(=O)Cc2ccccc2CNC1=O (centres unmarked) [Compound A8] | –
18 | 6.2 ± 0.9 | NCCOCCNC(=O)C1CCNC(=O)C=CC(=O)NC2CCCC(C2)C(=O)NC(Cc2ccco2)C(=O)NCc2ccccc2CC(=O)N1 (centres unmarked) [Compound A29] | –

Row | IC50 [µM] | SMILES | also measured
19 | > 100 | NCCOCCNC(=O)C1CCNC(=O)C=CC(=O)N2CCCC(C2)C(=O)NC(Cc2ccco2)C(=O)Nc2ccccc2CC(=O)N1 (centres unmarked) [Compound A2] | –
20 | > 100 | NCCOCCNC(=O)C1CNC(=O)C=CC(=O)N2CCCC(C2)C(=O)NC(Cc2ccco2)C(=O)NCc2ccccc2CC(=O)N1 (centres unmarked) [JOMAt] | –
21 | 49 ± 6 | NCCOCCNC(=O)C1CCNC(=O)C=CC(=O)N2CCCC(CC(=O)NC(Cc3ccco3)C(=O)NCc3ccccc3CC(=O)N1)C2 (centres unmarked) [JOBBt] | –
22 | – | CC(C)(C)CC1NC(=O)C(Cc2ccco2)NC(=O)C2CCCN2C(=O)C=CC(=O)NCc2cccc(c2)CC(C(=O)NCCOCCN)NC1=O (centres unmarked) [HOJJt/c] | CypD prolyl-isomerase inhibition (in words): no prolyl-isomerase inhibition; IC50 [1]: > 100 µM; IC50 [2]: > 100 µM
23 | 17 ± 6 | NCCOCCNC(=O)C1CCNC(=O)C=CC(=O)N2CCCC(C2)C(=O)NC(Cc2ccccc2)C(=O)NCc2ccccc2CC(=O)N1 (centres unmarked) [Compound A9] | –
24 | > 100 | NCCOCCNC(=O)C1CCNC(=O)C=CC(=O)N2CCCC(C2)C(=O)NC(Cc2ccco2)C(=O)Nc2ccccc2C(=O)N1 (centres unmarked) [Compound A6] | –
25 | > 100 | NCCOCCNC(=O)C1CCNC(=O)C=CC(=O)N2CCCC2CC(=O)NC(Cc2ccco2)C(=O)NCc2ccccc2CC(=O)N1 (centres unmarked) [JOCBt] | –
26 | > 100 | NCCOCCNC(=O)C1CCNC(=O)Cc2ccccc2CNC(=O)C(Cc2ccco2)NC(=O)C2CCCN(C2)C(=O)C=CC(=O)N1 (centres unmarked) [JOMFc] | –
27 | – | CC(C)(C)CC1NC(=O)C(CC2CCCCC2)NC(=O)C2CCCN2C(=O)C=CC(=O)NCc2cccc(c2)CC(C(=O)NCCOCCN)NC1=O (centres unmarked) [HJJJt/c] | CypD prolyl-isomerase inhibition (in words): no prolyl-isomerase inhibition; IC50 [1]: > 100 µM; IC50 [2]: > 100 µM
28 | 14 ± 3 | NCCOCCNC(=O)C1CCNC(=O)C=CC(=O)N2CCCC(C2)C(=O)NC(Cc2cccs2)C(=O)NCc2ccccc2CC(=O)N1 (centres unmarked) [Compound A17] | –
29 | > 100 | NC(=O)C1CCNC(=O)C=CC(=O)N2CCCC(CC(=O)NC(Cc3ccco3)C(=O)NCc3ccccc3CC(=O)N1)C2 (centres unmarked) [JOBBc-A] | –
30 | > 100 | NCCOCCNC(=O)C1CCNC(=O)C=CC(=O)N2CCCC(C2)C(=O)NC(Cc2ccco2)C(=O)NCc2ccccc2CC(=O)N1 (centres unmarked) [Compound A21] | –
31 | – | NCCOCCNC(=O)C1CNC(=O)C=CC(=O)NC2CCC(CC2)C(=O)NC(Cc2ccco2)C(=O)NCc2ccccc2CC(=O)N1 (centres unmarked) [JOGA] | IC50 [1]: > 100 µM; IC50 [2]: > 100 µM
32 | > 100 | NCCOCCNC(=O)C1CCNC(=O)C=CC(=O)N2CCCC(C2)C(=O)NC(Cc2ccco2)C(=O)NCc2ccccc2CC(=O)N1 (centres unmarked) [Compound A7] | –
33 | 17 ± 4 | NCCOCCNC(=O)C1CCNC(=O)C=CC(=O)N2CCCC(C2)C(=O)NC(CC=Cc2ccccc2)C(=O)NCc2ccccc2CC(=O)N1 (centres unmarked) [Compound A11] | –
34 | > 100 | NC(=O)C1CCNC(=O)C=CC(=O)NC2CCC(CC2)C(=O)NC(Cc2ccco2)C(=O)NCc2ccccc2CC(=O)N1 (centres unmarked) [JOGBt-A] | –
35 | 18 ± 3 | NC(=O)C1CCNC(=O)C=CC(=O)N2CCCC(C2)C(=O)NC(Cc2ccco2)C(=O)NCc2ccccc2CC(=O)N1 (centres unmarked) [JOMBt-A] | –
36 | 10 ± 2 | NCCOCCNC(=O)C1CCNC(=O)C=CC(=O)NC2CCCC(C2)C(=O)NC(Cc2ccco2)C(=O)NCc2ccccc2CC(=O)N1 (centres unmarked) [Compound A28] | –
